Data set [1] can be described thus: method code SF-C, from DOI: 10.1021/ja01077a028.

A word on the logP: it is a log measure of how a compound divides between an organic and an aqueous phase. Low readings indicate a more hydrophilic compound, high ones a more lipophilic compound. Consider `O=C(O)COc1cccc(S(F)(F)(F)(F)F)c1`, for which the logP was found to be 2.78.

`Cc1cccc(CC(=O)O)c1` displayed a logP in data set [1] of 1.95.

Compound `O=C(O)COc1ccc2c(c1)CCCC2` had a logP of 2.67.

`O=C(O)COc1ccccc1Br` came in with a logP in data set [1] of 2.1.

Consider `O=C(O)COc1cccc(O)c1`, for which the logP turned out to be 0.76.

On to `O=C(O)Cc1ccccc1F`, for which, in data set [1], the logP worked out at 1.5.

On to `COc1ccc(CO)cc1`, for which the logP amounted to 1.1.

The compound `O=C(O)COc1ccc(N=Nc2ccccc2)cc1` gave a logP of 2.99.

`CC(=O)c1cccc([N+](=O)[O-])c1` displayed a logP of 1.42.

On to `O=C(O)COc1cccc(F)c1`, for which the logP came out at 1.48. This logP and that of the compound before are within 0.2 log units of each other.

`Oc1ccccc1Br` displayed a logP of 2.35.

With `O=C(O)COc1ccccc1Cl`, the logP in data set [1] was determined as 2.02.

`O=C(O)COc1cccc(I)c1` gave a logP of 2.44.

`CS(=O)(=O)c1cccc(CC(=O)O)c1` gave a logP of 0.06.

The compound `O=C(O)COc1cccc(OC(F)(F)F)c1` registered a logP of 2.48.

With `O=C(O)COc1cccc(-c2ccccc2)c1`, the logP is 3.18.

Regarding `CC(=O)c1ccccc1OCC(=O)O`, the logP came to 1.25.

`OCc1cccc(Cl)c1` returned a logP of 1.94.

`CC(C)c1ccc(OCC(=O)O)cc1` showed a lipophilicity (logP) of 2.69.

In the case of `O=C(O)Cc1ccc(Br)cc1`, the logP was found to be 2.31.

`COc1ccc(OCC(=O)O)cc1` came in with a logP of 1.23.

The compound `O=C(O)COc1ccccc1[N+](=O)[O-]` showed a logP in data set [1] of 1.22.

As to `O=C(O)COc1ccc([N+](=O)[O-])cc1`, the logP worked out at 1.48.

`CSc1cccc(OCC(=O)O)c1`: the logP worked out at 1.9.

`O=[N+]([O-])c1cccc(Br)c1` registered a logP of 2.64.

Take `O=C(O)Cc1cccc(C(F)(F)F)c1`: the logP in data set [1] stood at 2.62.

The compound `CC(C)(C)c1cccc(OCC(=O)O)c1` displayed a logP of 2.96.

`N#Cc1cccc(CC(=O)O)c1`: the logP in data set [1] was 1.18.

On to `O=C(O)COc1ccc(O)cc1`, for which the logP came to 0.65.

Regarding `COC(=O)c1cccc(C(=O)O)c1`, the logP worked out at 1.83.

`O=C(O)COc1ccc2c(c1)CCC2` displayed a logP of 2.33.

On to `O=C(O)COc1cccc(C(=O)O)c1`, for which the logP amounted to 1.11.

Consider `O=C(O)COc1ccccc1I`, for which the logP was determined as 2.19.

`O=C(O)Cc1cccc([N+](=O)[O-])c1` came in with a lipophilicity (logP) of 1.45.

Compound `CC(=O)Nc1cccc(OCC(=O)O)c1` showed a logP of 0.48.

For the compound `O=C(O)COc1ccc(C2CCCCC2)cc1`, the logP was 3.79.

`O=C(O)Cc1cccc(Cl)c1`: the logP came to 2.09.

In the case of `Nc1cccc(CO)c1`, the logP is -0.05.

The compound `COc1cccc(CC(=O)O)c1` gave a logP in data set [1] of 1.5.

`CCCc1cccc(OCC(=O)O)c1` displayed a logP of 2.71.

On to `CC(=O)Oc1ccccc1`, for which the logP came out at 1.49.

For `O=C(O)c1ccc(Br)cc1`, the logP came out at 2.86.

`CC(=O)c1cccc(O)c1` showed a logP of 1.39.

As for `O=C(O)COc1cccc([N+](=O)[O-])c1`, the logP was 1.37.

`CCc1cccc(O)c1`: the logP stood at 2.4.

Turning to `CN(C)c1cccc(O)c1`, the logP is 1.56.

`O=C(O)COc1cccc(Cl)c1` registered a logP of 2.03.

In turn, `N#Cc1cccc(C(=O)O)c1` displayed a lipophilicity (logP) of 1.48.

The compound `CC(C)c1cccc(OCC(=O)O)c1` came in with a logP of 2.59.

In turn, `O=C(O)COc1ccc(C2CCCC2)cc1` registered a lipophilicity (logP) of 3.41.

Compound `Cc1cccc(CO)c1` registered a logP of 1.6.

Compound `O=C(O)Cc1cccc(F)c1` displayed a logP in data set [1] of 1.65.

The compound `O=C(O)c1cccc(C(F)(F)F)c1` had a lipophilicity (logP) of 2.95.

As to `NC(=O)Nc1cccc(OCC(=O)O)c1`, the logP is 0.26.

Consider `O=C(O)c1cccc(C(=O)O)c1`, for which the logP was 1.66.

Compound `O=C(O)Cc1cccc(C(=O)O)c1` came in with a logP in data set [1] of 1.14.

In the case of `O=C(O)COc1cccc(NC(=O)c2ccccc2)c1`, the logP amounted to 1.99.

`O=C(O)Cc1cccc(Br)c1`: the logP worked out at 2.37.

As for `O=C(O)Cc1cccc(O)c1`, the logP came out at 0.85.

As to `CCCCc1cccc(OCC(=O)O)c1`, the logP is 3.18.

For `CS(=O)(=O)c1cccc(OCC(=O)O)c1`, the logP came out at 0.01.

With `CCC(C)c1ccc(OCC(=O)O)cc1` (stereo not given), the logP was 3.12.

In turn, `N#Cc1cccc(O)c1` came in with a logP of 1.7.

On to `O=C(O)COc1cccc(S(=O)(=O)C(F)(F)F)c1`, for which the logP worked out at 2.19.

With `Oc1cccc(I)c1`, the logP is 2.93.

For the compound `Nc1cccc(F)c1`, the logP worked out at 1.3.

As for `O=C(O)COc1cccc(SC(F)(F)F)c1`, the log partition coefficient (logP) was found to be 2.86.

Consider `COc1cccc(OCC(=O)O)c1`, for which the lipophilicity (logP) worked out at 1.38.

Compound `O=[N+]([O-])c1cccc(CO)c1` came in with a logP of 1.21. The logP values of the last two compounds are within 0.2 log units of each other.

`Oc1ccccc1F` gave a logP of 1.71.

Source of the values: the SangsterLogP compilation.
